BindingDB's records for doi:10.1016/s0960-894x(98)00670-2 (Vertex Pharmaceuticals, 1999)

Molecular target: T1, Gag-Pol polyprotein [489-587] (Human immunodeficiency virus 1, UniProt P04585)
T1 construct: 489-587
Test: ChEBML_157552
Experimental: Compound was assayed for inhibition against HIV protease activity

## COc1ccc(S(=O)(=O)N(CC2CCCC2)C[C@@H](O)CN(CCc2ccccc2)C(=O)OCc2cccnc2)cc1 [{(S)-3-[Cyclopentylmethyl-(4-methoxy-benzenesulfonyl)-amino]-2-hydroxy-propyl}-phenethyl-carbamic acid pyridin-3-ylmethyl ester]
  Ki: 17 nM
